From patent US8546563B2, “Compounds which modulate the CB2 receptor” (Boehringer Ingelheim International GmbH, priority 2007, dated 2013)

These compounds were tested against T1, human CB2R (Homo sapiens, UniProt P34972) (assay: CB2R mediated modulation of cAMP synthesis). Conditions: CHO cells expressing human CB2R; inhibition of forskolin-stimulated cAMP synthesis (agonist); read-out: CB2 EC50.
T1 construct: host or cells: CHO cells
Format: cell-based
Method: B. CB2R Mediated Modulation of cAMP Synthesis:
Compounds of the invention were evaluated for their CB2 agonist or inverse agonistic activity in accordance with the following experimental method.
CHO cells expressing human CB2R (Euroscreen) were plated at a density of 5000 cells per well in 384 well plates and incubated overnight at 37° C. After removing the media, the cells were treated with test compounds diluted in stimulation buffer containing 1 mM IBMX, 0.25% BSA and 10 uM Forskolin. The assay was incubated for 30 minutes at 37° C. Cells were lysed and the cAMP concentration was measured using DiscoverX-XS cAMP kit, following the manufacturer's protocol. In this setting, agonists will decrease forskolin induced production of cAMP while inverse agonists will further increase forskolin induced production of cAMP. EC50 of agonists were calculated as follows. The maximal amount of cAMP produced by forskolin compared to the level of cAMP inhibited by 1 uM CP55940 is defined as 100%. The EC50 value of each test compound was determined as the concentration at which 50% of the forskolin-stimulated cAMP synthesis was inhibited. Data was analyzed using a four-parameter logistic model. (Model 205 of XLfit 4.0).

T1 sequence (P34972 whole entry): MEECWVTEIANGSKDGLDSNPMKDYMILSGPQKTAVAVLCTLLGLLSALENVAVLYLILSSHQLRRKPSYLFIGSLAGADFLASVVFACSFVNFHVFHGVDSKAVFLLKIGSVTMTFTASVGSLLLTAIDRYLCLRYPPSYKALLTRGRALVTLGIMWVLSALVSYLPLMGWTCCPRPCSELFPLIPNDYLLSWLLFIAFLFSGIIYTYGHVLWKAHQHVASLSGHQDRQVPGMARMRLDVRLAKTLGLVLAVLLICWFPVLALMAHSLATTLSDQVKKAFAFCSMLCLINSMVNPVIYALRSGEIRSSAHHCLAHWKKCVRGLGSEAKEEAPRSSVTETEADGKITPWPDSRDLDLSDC

Row | SMILES | EC50 [µM]
1 | CCCNS(=O)(=O)C(C)(C)C(=O)Nc1cc(C(C)(C)C)on1 [Example 35, N-(5-tert-Butyl-isoxazol-3-yl)-2-methyl-2-propylsulfamoyl-propionamide] | 0.033
2 | CC(C)(C)c1cc(NC(=O)C(C)(C)S(=O)(=O)NC2CCCCC2)no1 [Example 8, N-(5-tert-Butyl-isoxazol-3-yl)-2-cyclohexylsulfamoyl-2-methyl-propionamide] | 0.0024
3 | CC(C)(C(=O)Nc1nc(-c2ccc(F)cc2)cs1)S(=O)(=O)N1CCC1 | 0.019
4 | CC(C)(C(=O)Nc1nnc(-c2ccccc2)[nH]1)S(=O)(=O)N1CCC(F)C1 (stereo not shown) | 0.0051
5 | CC(C)(C)c1cc(NC(=O)C(C)(C)S(=O)(=O)N2CC[C@@H](F)C2)no1 | 0.0057
6 | CC(C)(C(=O)Nc1nc2ccccc2s1)S(=O)(=O)N1CCC1 [Example 50, 2-(Azetidine-1-sulfonyl)-N-benzothiazol-2-yl-2-methyl-propionamide] | 0.026
7 | CC(C)(C)c1cc(NC(=O)C(C)(C)S(=O)(=O)N2CCOCC2)on1 [Example 85, N-(3-tert-Butyl-isoxazol-5-yl)-2-methyl-2-(morpholine-4-sulfonyl)-propionamide] | 0.015
8 | CCCCN(C)S(=O)(=O)C(C)(C)C(=O)Nc1cc(C(C)(C)C)on1 [Example 41, N-(5-tert-Butyl-isoxazol-3-yl)-2-(butyl-methyl-sulfamoyl)-2-methyl-propionamide] | 0.0017
9 | CC(C)(C(=O)Nc1nnc(-c2ccccc2)[nH]1)S(=O)(=O)N1CCC1 | 0.011
10 | CC(C)(C)c1cc(NC(=O)C(C)(C)S(=O)(=O)N2CCCCC2)no1 [Example 9, N-(5-tert-Butyl-isoxazol-3-yl)-2-methyl-2-(piperidine-1-sulfonyl)-propionamide] | 0.0065
11 | CC(C)(C(=O)Nc1nc(C2CCCCC2)cs1)S(=O)(=O)N1CCC1 [Example 55, 2-(Azetidine-1-sulfonyl)-N-(4-cyclohexyl-thiazol-2-yl)-2-methyl-propionamide] | 0.022
12 | Cc1nc(NC(=O)C(C)(C)S(=O)(=O)N2CCC2)sc1C(C)(C)C | 0.0025
13 | CC(C)(C(=O)Nc1nc(-c2ccc(Cl)cc2)cs1)S(=O)(=O)N1CCC1 | 0.0089
14 | CCCCNS(=O)(=O)C(C)(C)C(=O)Nc1cc(C(C)(C)C)on1 [Example 24, N-(5-tert-Butyl-isoxazol-3-yl)-2-butylsulfamoyl-2-methyl-propionamide] | 0.01
15 | CC(C)(C(=O)Nc1nnc(-c2ccccc2)[nH]1)S(=O)(=O)N1CCOCC1 | 0.086
16 | CC(C)(C)c1cc(NC(=O)C(C)(C)S(=O)(=O)NC2CC2)no1 [Example 7, N-(5-tert-Butyl-isoxazol-3-yl)-2-cyclopropylsulfamoyl-2-methyl-propionamide] | 0.058
17 | Cn1nc(C(C)(C)C)cc1NC(=O)C(C)(C)S(=O)(=O)N1CCOCC1 | 0.079
18 | CC(C)(C)c1cc(NC(=O)C(C)(C)S(=O)(=O)N2CCOCC2)no1 [Example 40] | 0.047
19 | CC(C)(C(=O)Nc1nsc(-c2ccccc2)n1)S(=O)(=O)N1CCC1 | 0.072
20 | CC(C)(C)c1cc(NC(=O)C(C)(C)S(=O)(=O)N2CCC(F)C2)sn1 (stereo not shown) | 0.083

Row | SMILES | EC50 [µM]
21 | CC(C)(C)c1cccc(NC(=O)C(C)(C)S(=O)(=O)N2CCC2)c1 [Example 65, 2-(Azetidine-1-sulfonyl)-N-(3-tert-butyl-phenyl)-2-methyl-propionamide] | 0.017
22 | CC(C)(C)c1cc(NC(=O)C(C)(C)S(=O)(=O)N2CCC2)ccn1 [Example 82, 2-(Azetidine-1-sulfonyl)-N-(2-tert-butyl-pyridin-4-yl)-2-methyl-propionamide] | 0.037
23 | CC(C)(C)c1cc(NC(=O)C(C)(C)S(=O)(=O)NC2CCCC2)no1 [Example 10, N-(5-tert-Butyl-isoxazol-3-yl)-2-cyclopentylsulfamoyl-2-methyl-propionamide] | 0.013
24 | CCC(C)c1cc(NC(=O)C(C)(C)S(=O)(=O)N2CCC2)on1 (stereo not shown) [Example 73, 2-(Azetidine-1-sulfonyl)-N-(3-sec-butyl-isoxazol-5-yl)-2-methyl-propionamide] | 0.014
25 | CC(C)(C(=O)Nc1nc2c(s1)CCCC2)S(=O)(=O)N1CCC1 | 0.062
26 | CC(C)(C)c1cc(NC(=O)C(C)(C)S(=O)(=O)N2CC(F)(F)C2)no1 | 0.005
27 | CCc1sc(NC(=O)C(C)(C)S(=O)(=O)N2CCC2)nc1-c1ccccc1 [Example 54, 2-(Azetidine-1-sulfonyl)-N-(5-ethyl-4-phenyl-thiazol-2-yl)-2-methyl-propionamide] | 0.0066
28 | CC1CCCCN1S(=O)(=O)C(C)(C)C(=O)Nc1cc(C(C)(C)C)on1 (stereo not shown) | 0.097
29 | CC(C)(C(=O)Nc1nc(-c2cccs2)cs1)S(=O)(=O)N1CCC1 [Example 53, 2-(Azetidine-1-sulfonyl)-2-methyl-N-(4-thiophen-2-yl-thiazol-2-yl)-propionamide] | 0.041
30 | CC(C)(C)c1csc(NC(=O)C(C)(C)S(=O)(=O)N2CCC2)n1 [Example 44, 2-(Azetidine-1-sulfonyl)-N-(4-tert-butyl-thiazol-2-yl)-2-methyl-propionamide] | 0.014
31 | CCCCNS(=O)(=O)C(C)(C)C(=O)Nc1nc(C(C)(C)C)cs1 [Example 25, 2-Butylsulfamoyl-N-(4-tert-butyl-thiazol-2-yl)-2-methyl-propionamide] | 0.032
32 | CC(C)c1cc(NC(=O)C(C)(C)S(=O)(=O)N2CCC2)on1 [Example 74, 2-(Azetidine-1-sulfonyl)-N-(3-isopropyl-isoxazol-5-yl)-2-methyl-propionamide] | 0.108
33 | CC(C)(C)c1cc(NC(=O)C(C)(C)S(=O)(=O)N2CCC(F)(F)CC2)no1 [N-(5-tert-Butyl-isoxazol-3-yl)-2-(4,4-difluoro-piperidine-1-sulfonyl)-2-methyl-propionamide] | 0.0025
34 | CN(c1ccccc1)S(=O)(=O)C(C)(C)C(=O)Nc1nc(C(C)(C)C)cs1 [N-(4-tert-Butyl-thiazol-2-yl)-2-methyl-2-(methyl-phenyl-sulfamoyl)-propionamide] | 0.042
35 | CC(C)(C)c1cc(NC(=O)C(C)(C)S(=O)(=O)N2CCC2)on1 [Example 47, 2-(Azetidine-1-sulfonyl)-N-(3-tert-butyl-isoxazol-5-yl)-2-methyl-propionamide] | 0.02
36 | CC(C)(C(=O)Nc1ccc(C(F)(F)F)cc1F)S(=O)(=O)N1CCC1 | 0.086
37 | CC(C)(C)c1cc(NC(=O)C(C)(C)S(=O)(=O)N2CCC2)no1 [Example 5, 2-(Azetidine-1-sulfonyl)-N-(5-tert-butyl-isoxazol-3-yl)-2-methyl-propionamide] | 0.0036
38 | CC(C)(C)c1cc(NC(=O)C(C)(C)S(=O)(=O)N2CCCC2)no1 [Example 6, N-(5-tert-Butyl-isoxazol-3-yl)-2-methyl-2-(pyrrolidine-1-sulfonyl)-propionamide] | 0.0013
39 | CC(C)(C)c1ccc(NC(=O)C(C)(C)S(=O)(=O)N2CCC2)cc1 [Example 58, 2-(Azetidine-1-sulfonyl)-N-(4-tert-butyl-phenyl)-2-methyl-propionamide] | 0.0031
40 | Cc1sc(NC(=O)C(C)(C)S(=O)(=O)N2CCC2)nc1-c1ccc(F)cc1 | 0.017
